Data: patent US20250129095A1, “ANNULATED 2-AMINO-3-CYANO THIOPHENES AND DERIVATIVES FOR THE TREATMENT OF CANCER” (Boehringer Ingelheim Int'l GmbH Corp., priority 2021, published 2025)

What was measured:
MKN1 cells [1] = experiment: MKN1 CTG proliferation assay (120 h) (gastric cancer, wt amplified), assay 1; assay type: cell-based; settings: Homo sapiens, MKN-1
Experimental: (§1) SAS cells (JCRB0260) are dispensed into 384-well plates, flat and clear bottom (Greiner, PNr. 781091) at a density of 300 cells per well in 60 μL DMEM:F12 (Gibco 31330-038)+10% Fetal Calf Serum (HyClone, PNr.: SH30084.03) and incubated at 37° C. in a CO2 incubator overnight The next day, compounds (10 mM stock in DMSO) are added with the ECHO acoustic liquid handler system (Beckman Coulter), including DMSO controls. Plates are incubated for 120 h, and cell viability is measured using CellTiter-Glo luminescent cell viability reagent (Promega product code G7570). Viability (stated as percent of control) is defined as relative luminescence units RLU of each well divided by the RLU of cells in DMSO controls.
(§2) MKN1 cells (JCRB0252) are dispensed into white 384-well plates, flat and white bottom (Perkin Elmer, 6007680) at a density of 500 cells per well in 40 μl RPMI (Gibco, PNr.: 21875034)+10% FCS (HyClone, PNr.: SH30084.03) (assay 1) or into black 384-well plates, flat and clear bottom (Greiner, PNr. 781091) at a density of 200 cells per well in 60 μl RPMI-1640 (Gibco #A10491)+10% FCS (HyClone, PNr.: SH30084.03)+PenStrep (Gibco, PNr.15140-122) (assay 2). […] Compounds (10 mM stock in DMSO) are added at logarithmic dose series using the HP Digital Dispenser D300 (Tecan) (assay 1) or the ECHO acoustic liquid handler system (Beckman Coulter) (assay 2), including DMSO controls and normalizing for added DMSO. Plates are incubated for 120 h, and cell viability is measured using CellTiter-Glo luminescent cell viability reagent (Promega product code G7570). Viability (stated as percent of control) is defined as relative luminescence units RLU of each well divided by the RLU of cells in DMSO controls.

MKN1 cells [2] = experiment: MKN1 CTG proliferation assay (120 h) (gastric cancer, wt amplified), assay 2; assay type: cell-based; settings: Homo sapiens, MKN-1
Experimental: as §1, §2

KRAS (G13D)::SOS1 = target: T1, KRAS (G13D)::SOS1 (Homo sapiens, UniProt P01116, C118S/G13D); experiment: KRAS::SOS1 AlphaScreen binding assay, KRAS G13D
T1 construct: KRAS (G13D) 1-169, N-terminal 6His-tag for purification, cleaved off; 6His-tag (N, cleaved yes); TEV cleavage site; made in house
T1 sequence (P01116 1-169 isoform P01116-2 G13D/C118S): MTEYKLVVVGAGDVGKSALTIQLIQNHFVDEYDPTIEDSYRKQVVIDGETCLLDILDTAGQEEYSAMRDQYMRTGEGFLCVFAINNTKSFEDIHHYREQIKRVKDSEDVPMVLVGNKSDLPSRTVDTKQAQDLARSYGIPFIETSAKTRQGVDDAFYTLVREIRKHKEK
Description: This assay can be used to examine the potency with which compounds according to the invention binding to (mutated) KRAS inhibit the protein-protein interaction between SOS1 and (mutated) KRAS e.g., KRAS WT, KRAS G12C, KRAS G12D, KRAS G12V, KRAS G13D. […] Low IC50 values in this assay setting are indicative of strong inhibition of protein-protein interaction between SOS1 and KRAS:
These assays measure the inhibitory effect of compounds on KRAS mutant protein-protein interactions using the Alpha Screen technology by Perkin Elmer […]
Plates are kept at room temperature in a darkened incubator. After an additional 60 minutes incubation time the signal is measured in a PerkinElmer Envision HTS Multilabel Reader using the AlphaScreen specs from PerkinElmer. […]
As internal control known inhibitors of KRAS mutant::SOS1 interaction can be measured on each compound plate. […]

SMILES | IC50 (MKN1 cells [1]) | IC50 (MKN1 cells [2]) | IC50 (KRAS (G13D)::SOS1)
C[C@H](Oc1cc(O[C@@H]2CNC2(C)C)nc(-c2noc3c2CCC[C@@]32CCCc3sc(N)c(C#N)c32)n1)[C@@H]1C[C@@H](F)CN1C [II-31] | 357 nM | – | –
C[C@H](Oc1cc(O[C@@H]2CNC2(C)C)nc(-c2noc3c2CCC[C@@]32CCCc3sc(N)c(C#N)c32)n1)[C@@H]1CCCN1C [II-9] | – | 129 nM | –
COc1c(OCC2(N(C)C)COC2)nc(-c2noc3c2CCC[C@@]32CCCc3sc(N)c(C#N)c32)nc1O[C@@H](C)[C@@H]1CCCN1C [II-25] | – | – | 8 nM
CO[C@@H]1C[C@@H]([C@H](C)Oc2cc(O[C@@H]3CNC3(C)C)nc(-c3noc4c3CCC[C@@]43CCCc4sc(N)c(C#N)c43)n2)N(C)C1 [II-30] | 223 nM | – | –
C[C@H](Oc1cc(OCC2(N(C)C)COC2)nc(-c2onc3c2CCC[C@@]32CCCc3sc(N)c(C#N)c32)n1)[C@@H]1CCCN1C [Example I-8] | – | 108 nM | 8 nM
C[C@H](Oc1cc(Oc2cncnc2)nc(-c2noc3c2CCC[C@@]32CCCc3sc(N)c(C#N)c32)n1)[C@@H]1CCCN1C [II-1] | – | 43 nM | –
C[C@H](Oc1cc(OCCO)nc(-c2noc3c2CCC[C@@]32CCCc3sc(N)c(C#N)c32)n1)[C@@H]1CCCN1C [II-6] | – | 90 nM | –
C[C@H](Oc1cc(OCC2(N(C)C)COC2)nc(-c2noc3c2CCC[C@@]32CCCc3sc(N)c(C#N)c32)n1)[C@@H]1CCCN1C [II-22] | 33 nM | – | 6 nM
C[C@H](Oc1cc(Oc2cccnc2)nc(-c2onc3c2CCC[C@@]32CCCc3sc(N)c(C#N)c32)n1)[C@@H]1CCCN1C [Example I-2] | – | 109 nM | –
